From patent US10821148B2, “Pharmaceutical composition for treating or alleviating an autoimmune disease and/or complication thereof and/or nephritis and method for treating or alleviating an autoimmune disease and/or complication thereof and/or nephritis” (Industrial Technology Research Institute, priority 2016, dated 2020)
Like-named read-outs stand apart in the source and are kept apart here.

Tests used:
[1] = system: IL-17 secretion in peripheral blood leukocytes (PBLs); experiment: Anti-IL-17 secretion screening, peripheral blood leukocyte (PBL) platform; assay type: cell-based; details: rat PBL, PMA + ionomycin, 48 hours
Protocol: 2. Method 2: Anti-IL-17 Secretion Drug Screening Through a Peripheral Blood Leukocyte (PBL) Platform
Blood of SD rat was obtained through saphenous vein sampling. The rat blood was placed in a centrifuge tube containing EDTA (final concentration was 2 mg/ml) and mixed well, and then 4-fold volume of ACK buffer was added to the centrifuge tube to lyse red blood cells. The above-mentioned centrifuge tube was placed in a 37° C. water bath for 5 minutes, and 4 folds volume of PBS buffer was added to the centrifuge tube and the centrifuge tube was centrifuged at a speed of 3000 rpm for 5 minutes, and the supernatant was removed. After that, the steps for lysing red blood cells were repeated twice and an appropriate volume of cell culture medium was added to the centrifuge.
The cells was implanted to a 96-well plate (2×10^5 cells/well), and an appropriate concentration of a drug to be tested was added therein (10 μl/well) and evenly mixed. Next, the 96-well plate was placed in an incubator at 37° C. with 5% CO2 for 1 hour. After that, the stimuli, phorbol-12-myristate-13-acetate (PMA) (final concentration was 30 ng/ml), and ionomycin (final concentration was 1 μg/ml) were added to the 96-well plate. After being evenly mixed, the 96-well plate was placed in an incubator for 48 hours.
After 48 hours of culturing, the 96-well plate was centrifuged at 3000 rpm for 5 minutes to let the cells precipitate and the supernatant (cell-cultured medium) was transferred to a new 96-well plate (about 155 μl/well).
After the cell-cultured medium in the new 96 well plate was 2-4 fold diluted, a rat IL-17 ELISA kit (eBioscience, 88-7170) was used to determine IL-17 content thereof.
For both of cell viability assay and IL-17 content assay, the result of the group adding phorbol-12-myristate-13-acetate (PMA) and ionomycin was set as 100%, and secretion of IL-17 was shown by percentage.

IL-6 = experiment: Lipopolysaccharide (LPS)-induced acute inflammation in mice, IL-6; assay type: in vivo; details: plasma, 1.5 hours after 1 mg/kg LPS IP, BALB/c mice
Description: (§1) 5. Method 5: Model of Lipopolysaccharide (LPS)-Induced Acute Inflammation in Mice
(§2) 6-8 weeks old male BALB/c mice were purchased from BioLASCO Taiwan Co., Ltd. On the day that the animals entered, the mice were marked, separated into cages, and weighed. Then, the mice were quarantined for one week, and the breeding conditions meet the standards of the National Laboratory Animal Center (Taiwan). During the quarantine, the motility and environmental adaptability of the mice were observed. If the body weights of the mice increased normally, the mice were moved to the breeding region to await the implementation of the experiment.
(§3) Illumination for the breeding region was automatically controlled for 12-hr light-dark cycle, and the temperature was controlled at 23±2° C. The animals were free to obtain sufficient food and water. This strain of animals has had abundant basic reference information and data, and can be suitable for a functional evaluation test for inflammation, and the experimental method had been approved by Institutional Animal Care and Use Committees (IACUC) in the Industrial Technology Research Institute.
(§4) 5.2 Treatment of the Mice
(§5) Before the experiment, the mice were weighed and grouped to make the average body weight for each group has no obvious difference, and the clinical symptoms of the mice were recorded. Two to four hours before the experiment, the mice were fasting, but water was still regularly provided. At a specific time before or after being stimulated by lipopolysaccharides (LPS), the mice were administered a drug to be tested through oral administration, intraperitoneal injection (IP) or intravenous injection (IV), and after the administration, the clinical symptoms of the mice were observed and recorded. […] The mice were stimulated by 1 mg/kg lipopolysaccharides (0.25 ml/mouse) through intraperitoneal injection (IP), and the clinical symptoms of the mice were observed and recorded. […]
TNF-α, IL-6 and MCP-1 secretion amounts in the plasma were analyzed according to the analysis steps of Duoset® ELISA kit, and the steps are summarized as follows: […]

MCP-1 = experiment: Lipopolysaccharide (LPS)-induced acute inflammation in mice, MCP-1; assay type: in vivo; details: plasma, 1.5 hours after 1 mg/kg LPS IP, BALB/c mice
Description: as §1, §2, §3, §4
Before the experiment, the mice were weighed and grouped to make the average body weight for each group has no obvious difference, and the clinical symptoms of the mice were recorded. Two to four hours before the experiment, the mice were fasting, but water was still regularly provided. At a specific time before or after being stimulated by lipopolysaccharides (LPS), the mice were administered a drug to be tested through oral administration, intraperitoneal injection (IP) or intravenous injection (IV), and after the administration, the clinical symptoms of the mice were observed and recorded. The mice of the control group were administered the same volume of solvent. The mice were stimulated by 1 mg/kg lipopolysaccharides (0.25 ml/mouse) through intraperitoneal injection (IP), and the clinical symptoms of the mice were observed and recorded.
After being stimulated by lipopolysaccharides for 1.5 hours, the mice were euthanized with excess CO2, and then whole blood of the mice was obtained through intra-cardiac puncture.
The whole blood of the mice was centrifuged at 6000 rpm at 4° C. for 10 minutes. After that, plasma was collected, and determinations of TNF-α, IL-6 and MCP-1 secretion amounts in the plasma were performed.
5.3 Determinations of TNF-α, IL-6 and MCP-1 Secretion Amounts
TNF-α, IL-6 and MCP-1 secretion amounts in the plasma were analyzed according to the analysis steps of Duoset® ELISA kit, and the steps are summarized as follows:
At room temperature, a capture antibody mixture solution was added to an ELISA 96 well plate (100 μl/well) to cover the surface of the ELISA 96-well plate. […]

[2] = system: IL-17 secretion in EL4 cells; experiment: Anti-IL-17 secretion screening, platform of EL4 cells; assay type: cell-based, mouse; details: PMA + ionomycin, 18 hours
Protocol: 8. Method 8: Anti-IL-17 Secretion Drug Screening Through a Platform of EL4 Cells
The EL4 cells were seeded into a 96-well plate (1×10^5 cells/well), and an appropriate concentration of a drug to be tested was added therein (10 μl/well) and evenly mixed.
Next, the 96-well plate was placed in an incubator at 37° C. with 5% CO2 for 1 hour. After that, the stimuli, phorbol-12-myristate-13-acetate (PMA) (final concentration was 10 ng/ml), and ionomycin (final concentration was 5 ng/ml) were added to the 96-well plate. After being evenly mixed, the 96-well plate was placed in an incubator for 18 hours.
After 18 hours of culturing, the 96-well plate was centrifuged at 1200 rpm for 5 minutes to let the cells precipitate and the supernatant (cell-cultured medium) was transferred to a new 96-well plate (about 155 μl/well).
The cell-cultured medium in the new 96-well plate was 2-4 fold diluted and the IL-17 concentration was determined by mouse IL-17 ELISA kit (R&D, DY421E).
For both of cell viability and IL-17 content assays, the results of the group with phorbol-12-myristate-13-acetate (PMA) and ionomycin were set as 100%, and the secretion of IL-17 was expressed by percentage.

TNF-α = experiment: Lipopolysaccharide (LPS)-induced acute inflammation in mice, TNF-α; assay type: in vivo; details: plasma, 1.5 hours after 1 mg/kg LPS IP, BALB/c mice
Description: as §1
as §2, with “experiment. […]” for “experiment.”
as §5, with “Two to four hours before the experiment, the mice were fasting, but water was still regularly provided.” left out

NZBWF1/J mice = assay type: in vivo; details: for Survival rate (%): 50 mg/kg, NZBWF1/J mice
Description: 6. Method 6: NZBWF Autoimmune Animal Model for Systemic Lupus Erythematosus (SLE)
NZBWF1/J female mice were purchased from The Jackson Laboratory, U.S.A, and after animal quarantine, the mice were fed to an appropriate age (about 16 to 25 weeks old).
Before the experiment, mice were randomly grouped according to the antibody to double stranded DNA (dsDNA) value of sera, then the mice were started to administrate test articles. Mice were administrated 5 days a week, and after 10-18 weeks of continuous administration, the mice were sacrificed. During the administration, body weight change was recorded every week, mice urine were collected every 1 to 2 week by gently pressing the abdomens of the mice and the urinary protein content (mg/dl) was determined by test strips and a protein quantitative kit.
After the experiment was completed, the urine was collected and the whole blood of the mice was obtained through intra-cardiac puncture. After that, kidneys of the mice were exteriorized and weighed. The appearance and pathological changes of kidneys were recorded, and the kidneys were preserved in 10% neutral formalin for pathological examinations. The pathological score was determined according to the literature, Shackelford et al. Toxicol. Pathol. 30: 93-96, and shown by a score of 0 to 5: a score of 0 represents not present; a score of 1 represents minimal (<1%); a score of 2 represents slight (1-25%); a score of 3 represents moderate (26-50%); a score of 4 represents moderate/severe (51-75%), and a score of 5 represents severe (76-100%).
6.2 Determination of Protein Content in Urine
The abdomen (bladder) of the mouse was gently pressed every 1 to 2 week to make the mouse urinate and the urine was collected in a 1.5 ml centrifuge tube, the protein content (mg/dl) in the urine was determined by urine test strip. The test strip was moistened with the urine and stood for 1 minute, and the protein content was determined by the color shown by the test strip. […] If the color shown by the test strip is between two color regions, the urinary protein content is determined by the mean of the values represented by the two regions. […]
The contents of blood urea nitrogen (BUN) and creatinine (CRE) in the serum were determined by FUJI DRI-CHEM 4000i biochemistry analyzer, and the steps are summarized as follows:
Before the experiment, the urea nitrogen and creatinine test strips and the serum to be tested were placed at room temperature to back to room temperature. After that, according to the instructions of the analyzer, 10 μl of serum was added to the central portion of the test strip (if the value exceeded the detectable range, the serum was appropriately diluted with sterilized water), and then determined. […]

COc1c(CC=C(C)C)c(C=O)cc2c1[nH]c1ccccc12 [F3m, indizoline]
IL-17 inhibition IC50, peripheral blood leukocyte (PBL) [1]: 2.4 µg/mL
production of the inflammatory factor IL-6 (IL-6): capable of significantly inhibiting the production of the inflammatory factor, IL-6
production of the inflammatory factor MCP-1 (MCP-1): capable of significantly inhibiting the production of the inflammatory factor, MCP-1
IL-17 inhibition IC50, EL4 cells [2]: 2.8 µg/mL

CC(C)=CCCC(C)=CCOc1c2occc2cc2ccc(=O)oc12 [F4m, 8-geranyloxypsoralen]
IL-17 inhibition IC50, peripheral blood leukocyte (PBL) [1]: 4.3 µg/mL
production of the inflammatory factor TNF-α (TNF-α): capable of significantly inhibiting the production of the inflammatory factor, TNF-α
production of the inflammatory factor IL-6 (IL-6): capable of significantly inhibiting the production of the inflammatory factor, IL-6
production of the inflammatory factor MCP-1 (MCP-1): capable of significantly inhibiting the production of the inflammatory factor, MCP-1
survival rate of NZBWF1/J mice (in words) (NZBWF1/J mice; concluded from HE-07-Fr4 (more than 80% of F4m), Table 10): capable of effectively improving the survival rate of NZBWF1/J mice
IL-17 inhibition IC50, EL4 cells [2]: 15.9 µg/mL

CC(C)=CCOc1c2occc2cc2ccc(=O)oc12 [F5m, imperatorin]
IC50 ([1]; Leukocyte, read-out: IL-17 inhibition IC50, peripheral blood leukocyte (PBL)): 20.5 µg/mL
production of the inflammatory factor TNF-α (TNF-α): capable of significantly inhibiting the production of the inflammatory factor, TNF-α
production of the inflammatory factor MCP-1 (MCP-1): capable of significantly inhibiting the production of the inflammatory factor, MCP-1
IC50 ([2]; Mus musculus, read-out: IL-17 inhibition IC50, EL4 cells): 45 µg/mL

CC1(C)O[C@@H]1COc1c2occc2cc2ccc(=O)oc12 [F7m, prangenin]
IL-17 inhibition IC50, peripheral blood leukocyte (PBL) [1]: 28.7 µg/mL
IL-17 inhibition IC50, EL4 cells [2]: 47.2 µg/mL

O=P1(N(CCCl)CCCl)NCCCO1 (centres unmarked) [cyclophosphamide]
Survival rate (%) (NZBWF1/J mice; Table 4 study): 100%
Survival rate (%) (NZBWF1/J mice; Table 8 study): 100%
Survival rate (%) (NZBWF1/J mice; Table 10 study, 12 weeks): 100%

ζ-clausenamide [F6m]
IL-17 inhibition IC50, peripheral blood leukocyte (PBL) [1]: 3.0 µg/mL
production of the inflammatory factor IL-6 (IL-6): capable of significantly inhibiting the production of the inflammatory factor, IL-6
production of the inflammatory factor MCP-1 (MCP-1): capable of significantly inhibiting the production of the inflammatory factor, MCP-1
IL-17 inhibition IC50, EL4 cells [2]: 5.1 µg/mL
